Tests used:
Endothelin-1 receptor [1] = target: T1, Endothelin-1 receptor (Homo sapiens, UniProt P25101); assay: In vitro inhibition of [125I]ET1 binding to CHO cells expressing recombinant human Endothelin A receptor; format: cell-based
T1 sequence (P25101 whole entry): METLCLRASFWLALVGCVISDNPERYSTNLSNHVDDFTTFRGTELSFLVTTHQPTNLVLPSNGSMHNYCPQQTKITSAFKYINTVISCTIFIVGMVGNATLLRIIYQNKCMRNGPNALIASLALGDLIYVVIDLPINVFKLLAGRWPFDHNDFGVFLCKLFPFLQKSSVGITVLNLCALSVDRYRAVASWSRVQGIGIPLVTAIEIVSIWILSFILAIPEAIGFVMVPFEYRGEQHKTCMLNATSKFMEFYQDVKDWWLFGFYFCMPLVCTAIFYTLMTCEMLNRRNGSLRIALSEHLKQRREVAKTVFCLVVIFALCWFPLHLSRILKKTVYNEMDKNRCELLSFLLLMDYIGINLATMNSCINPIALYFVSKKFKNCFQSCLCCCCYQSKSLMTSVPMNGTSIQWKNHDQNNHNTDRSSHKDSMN

[2] = target: T2, Endothelin receptor type B (Homo sapiens) (UniProt P24530); assay: Inhibition of [125I]ET1 binding to CHO cells expressing human Endothelin B receptor at a concentration of 1 uM; format: cell-based
T2 sequence (whole entry): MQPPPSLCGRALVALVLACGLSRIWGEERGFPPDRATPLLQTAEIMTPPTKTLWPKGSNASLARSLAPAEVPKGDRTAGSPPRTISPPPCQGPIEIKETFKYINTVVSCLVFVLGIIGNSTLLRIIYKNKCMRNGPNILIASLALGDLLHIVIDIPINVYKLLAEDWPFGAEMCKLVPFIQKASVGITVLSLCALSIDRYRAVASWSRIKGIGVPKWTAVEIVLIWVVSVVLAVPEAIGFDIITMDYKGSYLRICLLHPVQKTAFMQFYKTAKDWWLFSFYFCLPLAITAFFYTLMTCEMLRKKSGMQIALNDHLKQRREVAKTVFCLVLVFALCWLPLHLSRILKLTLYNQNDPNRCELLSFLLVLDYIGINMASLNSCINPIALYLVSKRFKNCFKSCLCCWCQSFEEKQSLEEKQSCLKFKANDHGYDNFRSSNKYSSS

Rattus norvegicus = species on record: Rattus norvegicus; assay: Tested for antagonising activity against ET-1 induced contraction of rat aorta; format: functional
Endothelin-1 receptor [3] = target: T1, Endothelin-1 receptor; assay: Tested for in vitro inhibition of [125I]ET1 binding to CHO cells expressing human Endothelin A receptor; format: cell-based
[4] = target: T3, Endothelin receptor type B (Homo sapiens, UniProt P24530); assay: Inhibition of [125I]-ET-1 binding to CHO cells expressing human Endothelin B receptor […]; format: cell-based
T3 sequence (P24530 whole entry): T2 sequence (whole entry)

Structure (SMILES) | IC50 (Endothelin-1 receptor [1]) [nM] | inhibition [2] [%] | Ki (Endothelin-1 receptor [3]) [nM] | Ki [4] [nM] | pKB (Rattus norvegicus)
CCOc1ccc2c(c1)[C@H](c1ccc(OC)c(OC)c1OCC(=O)O)N(CC(=O)O)[C@@H]2c1ccc2c(c1)OCO2 | 96 | 27 |  |  | 
CCOc1ccc2c(c1)[C@H](c1cc(OC)c(OC)c(OC)c1)N(c1nn[nH]n1)[C@@H]2c1ccc2c(c1)OCO2 | > 10000 | 0 |  |  | 
CCOc1ccc2c(c1)[C@@H](c1cc(OC)c(OC)c(OC)c1)N(CC(=O)O)[C@@H]2c1ccc2c(c1)OCO2 | 66 | 17 |  |  | 
CCOc1ccc2c(c1)[C@@H](c1cc(OC)c(OC)c(OC)c1OCC(=O)O)N(CC(=O)O)[C@@H]2c1ccc2c(c1)OCO2 | 310 | 1 |  |  | 
CCOc1ccc2c(c1)[C@H](c1cc(OC)c(OC)c(OC)c1)N(CC(=O)O)[C@@H]2c1ccc2c(c1)OCO2 |  | 15 |  |  | 
COc1ccc([C@@H]2c3cc(OC)ccc3[C@@H](c3ccc4c(c3)OCO4)N2CC(=O)O)cc1 | 3300 | 1 |  |  | 
CCCOc1ccc2c(c1)[C@H](c1ccc(OC)cc1)N(CC(=O)O)[C@@H]2c1ccc(OC)cc1OCC(=O)O | > 10000 | 0 |  |  | 
CCOc1ccc2c(c1)[C@@H](c1ccc(OC)c(OC)c1OCC(=O)O)N(CC(=O)O)[C@@H]2c1ccc2c(c1)OCO2 | 6.1 | 2 |  |  | 
CCCOc1ccc2c(c1)[C@@H](c1ccc(OC)cc1)N(CC(=O)O)[C@@H]2c1ccc2c(c1)OCO2 | 120 |  |  |  | 
CCOc1ccc2c(c1)[C@@H](c1ccc(OC)cc1OCc1nn[nH]n1)N(CC(=O)O)[C@@H]2c1ccc2c(c1)OCO2 |  | 0 |  |  | 
CCOc1ccc2c(c1)[C@@H](c1ccc(OC)cc1OCc1nnn[nH]1)N(CC(=O)O)[C@@H]2c1ccc2c(c1)OCO2 | 29 |  |  |  | 
CCOc1ccc2c(c1)[C@@H](c1ccc(OC)cc1)N(CC(=O)O)[C@@H]2c1ccc2c(c1)OCO2 | 96 | 9 |  |  | 
CCCOc1ccc2c(c1)[C@@H](c1ccc(OC)cc1)N(CC(=O)O)[C@@H]2c1ccc(OC)cc1OCC(=O)O | > 10000 | 0 |  |  | 
CCOc1ccc2c(c1)[C@H](c1ccc(OC)cc1OCc1nnn[nH]1)N(CC(=O)O)[C@@H]2c1ccc2c(c1)OCO2 | > 1000 |  |  |  | 
CCOc1ccc2c(c1)[C@H](c1cc(OC)c(OC)c(OC)c1OCC(=O)O)N(CC(=O)O)[C@@H]2c1ccc2c(c1)OCO2 | 330 | 10 |  |  | 
CCCOc1ccc2c(c1)[C@H](c1ccc(OC)cc1OCC(=O)O)[C@@H](C(=O)O)[C@@H]2c1ccc2c(c1)OCO2 |  |  | 0.43 | 14.7 | 
CCOc1ccc2c(c1)[C@@H](c1ccc(OC)cc1OCC(=O)O)N(c1nn[nH]n1)[C@@H]2c1ccc2c(c1)OCO2 | 31 | 17 |  |  | 
CCOc1ccc2c(c1)[C@H](c1ccc(OC)cc1)N(CC(=O)O)[C@@H]2c1ccc2c(c1)OCO2 | 95 | 23 |  |  | 
CCOc1ccc2c(c1)[C@H](c1ccc(OC)cc1OCc1nn[nH]n1)N(CC(=O)O)[C@@H]2c1ccc2c(c1)OCO2 |  | 37 |  |  | 

Continued, in another order:

IC50 (Endothelin-1 receptor [1]) [nM] | inhibition [2] [%] | Ki (Endothelin-1 receptor [3]) [nM] | Ki [4] [nM] | Structure (SMILES) | pKB (Rattus norvegicus)
85 | 12 |  |  | CCOc1ccc2c(c1)[C@@H](c1cccc(OC)c1OCC(=O)O)N(CC(=O)O)[C@@H]2c1ccc2c(c1)OCO2 | 
4.1 | 52 |  |  | CCOc1ccc2c(c1)[C@H](c1ccc(OC)cc1OCC(=O)O)N(CC(=O)O)[C@@H]2c1ccc2c(c1)OCO2 | 
77 | 4 |  |  | CCOc1ccc2c(c1)[C@@H](c1ccc(OC)cc1O)N(CC(=O)O)[C@@H]2c1ccc2c(c1)OCO2 | 
12 | 11 |  |  | CCOc1ccc2c(c1)[C@@H](c1ccc(OC)cc1OCC(=O)O)N(C(=O)C(=O)O)[C@@H]2c1ccc2c(c1)OCO2 | 7.7
5.4 | 15 |  |  | CCOc1ccc2c(c1)[C@@H](c1ccc(OC)cc1OCC(=O)O)N(CC(=O)O)[C@@H]2c1ccc2c(c1)OCO2 | 
22 | 37 |  |  | CCOc1ccc2c(c1)[C@@H](c1ccc(OC)cc1OCCCC(=O)O)N(CC(=O)O)[C@@H]2c1ccc2c(c1)OCO2 | 
58 | 13 |  |  | CCOc1ccc2c(c1)[C@H](c1ccc(OC)cc1O)N(CC(=O)O)[C@@H]2c1ccc2c(c1)OCO2 | 
110 | 31 |  |  | CCOc1ccc2c(c1)[C@H](c1cccc(OC)c1OCC(=O)O)N(CC(=O)O)[C@@H]2c1ccc2c(c1)OCO2 | 
14 | 34 |  |  | CCOc1ccc2c(c1)[C@H](c1ccc(OC)cc1OCC(C)(C)C(=O)O)N(CC(=O)O)[C@@H]2c1ccc2c(c1)OCO2 | 
> 10000 | 0 |  |  | CCOc1ccc2c(c1)[C@H](c1ccc(OC)cc1OCC(=O)O)N(C(=O)C(=O)O)[C@@H]2c1ccc2c(c1)OCO2 | 
68 | 1 |  |  | CCOc1ccc2c(c1)[C@@H](c1ccc(OC)cc1OCC(C)(C)C(=O)O)N(CC(=O)O)[C@@H]2c1ccc2c(c1)OCO2 | 
> 10000 | 6 |  |  | CCOc1ccc2c(c1)[C@@H](c1ccc(OC)cc1OCCO)N(CC(=O)O)[C@@H]2c1ccc2c(c1)OCO2 | 
